Experiments:
[1] = target: DNA (cytosine-5)-methyltransferase 1 (Homo sapiens) (UniProt P26358); assay: Inhibition of DNMT1 (unknown origin) at 100 uM using poly(dI-dC).poly(dI-dC) as substrate preincubated for 15 mins followed by substrate/[3H]-SAM addition measured after 120 mins by liquid scintillation counting analysis
[2] = system: U-937; assay: Growth inhibition of human U937 cells at 50 uM after 72 hrs by MTT assay; format: functional; details: U-937, 72 h, read-out: GI
[3] = system: K562; assay: Growth inhibition of human K562 cells at 50 uM after 72 hrs by MTT assay; format: functional; details: K562, 72 h, read-out: GI
[4] = target: DNMT3B-DNMT3L complex (Homo sapiens) (UniProt Q9UBC3+Q9UJW3); assay: Inhibition of DNMT3B/3L (unknown origin) at 100 uM using biotinylated DNA oligonucleotides as substrate preincubated for 15 mins followed by substrate/[3H]-SAM addition measured after 4 hrs by liquid scintillation counting analysis; format: protein-complex assay
DNMT3B-DNMT3L complex (Homo sapiens), sequence (Q9UJW3 whole entry, looked up, other chains not shown): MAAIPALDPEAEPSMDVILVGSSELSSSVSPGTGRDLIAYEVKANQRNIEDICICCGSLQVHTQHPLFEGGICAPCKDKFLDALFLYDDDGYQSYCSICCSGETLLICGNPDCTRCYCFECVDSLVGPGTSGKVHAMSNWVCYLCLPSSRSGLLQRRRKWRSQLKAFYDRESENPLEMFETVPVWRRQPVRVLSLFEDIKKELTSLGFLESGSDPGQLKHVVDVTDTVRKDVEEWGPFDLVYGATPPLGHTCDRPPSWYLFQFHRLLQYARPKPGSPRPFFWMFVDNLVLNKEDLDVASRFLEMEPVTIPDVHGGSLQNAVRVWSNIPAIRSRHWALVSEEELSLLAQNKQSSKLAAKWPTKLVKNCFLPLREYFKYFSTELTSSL

[5] = target: DNMT3A2/3L complex (Homo sapiens) (UniProt Q9Y6K1+Q9UJW3); assay: Inhibition of DNMT3A/3L (unknown origin) at 100 uM using biotinylated DNA oligonucleotides as substrate preincubated for 15 mins followed by substrate/[3H]-SAM addition measured after 4 hrs by liquid scintillation counting analysis; format: protein-complex assay
DNMT3A2/3L complex (Homo sapiens), sequence (Q9UJW3 whole entry, looked up): as the sequence (Q9UJW3 whole entry, looked up, other chains not shown) above
DNMT3A2/3L complex (Homo sapiens), sequence (Q9Y6K1 whole entry, looked up): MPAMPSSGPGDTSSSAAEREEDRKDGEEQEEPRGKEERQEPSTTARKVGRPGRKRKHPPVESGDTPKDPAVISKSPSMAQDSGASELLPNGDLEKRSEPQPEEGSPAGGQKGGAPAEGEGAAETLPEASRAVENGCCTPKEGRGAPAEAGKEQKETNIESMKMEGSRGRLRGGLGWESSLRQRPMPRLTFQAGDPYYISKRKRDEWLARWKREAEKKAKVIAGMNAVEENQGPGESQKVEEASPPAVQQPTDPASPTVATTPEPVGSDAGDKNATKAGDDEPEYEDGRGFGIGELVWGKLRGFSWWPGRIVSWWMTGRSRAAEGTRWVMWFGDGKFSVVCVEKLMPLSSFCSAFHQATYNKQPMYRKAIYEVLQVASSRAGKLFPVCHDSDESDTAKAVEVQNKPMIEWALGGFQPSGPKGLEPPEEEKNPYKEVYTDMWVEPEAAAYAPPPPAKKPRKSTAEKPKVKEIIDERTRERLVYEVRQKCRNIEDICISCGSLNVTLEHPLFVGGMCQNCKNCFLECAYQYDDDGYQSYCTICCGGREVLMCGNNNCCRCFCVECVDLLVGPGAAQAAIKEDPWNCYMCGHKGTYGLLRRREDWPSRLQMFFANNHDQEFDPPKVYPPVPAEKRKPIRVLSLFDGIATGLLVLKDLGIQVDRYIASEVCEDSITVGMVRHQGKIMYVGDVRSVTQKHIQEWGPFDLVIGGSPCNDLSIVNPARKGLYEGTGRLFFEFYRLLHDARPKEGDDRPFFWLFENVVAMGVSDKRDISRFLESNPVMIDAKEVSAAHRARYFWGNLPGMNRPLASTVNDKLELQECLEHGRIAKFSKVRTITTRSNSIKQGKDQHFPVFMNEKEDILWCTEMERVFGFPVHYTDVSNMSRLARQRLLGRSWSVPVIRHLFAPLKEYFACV

[6] = system: K562; assay: Antiproliferative activity against human K562 cells after 72 hrs by MTT assay; format: functional, cell-based; details: K562, 72 h
[7] = target: T1, Protein deacetylase HDAC6 (Homo sapiens, UniProt Q9UBN7); assay: Inhibition of HDAC6 (unknown origin) preincubated for 15 mins followed by substrate addition measured after 60 mins by fluorescence assay
T1 sequence (Q9UBN7 whole entry): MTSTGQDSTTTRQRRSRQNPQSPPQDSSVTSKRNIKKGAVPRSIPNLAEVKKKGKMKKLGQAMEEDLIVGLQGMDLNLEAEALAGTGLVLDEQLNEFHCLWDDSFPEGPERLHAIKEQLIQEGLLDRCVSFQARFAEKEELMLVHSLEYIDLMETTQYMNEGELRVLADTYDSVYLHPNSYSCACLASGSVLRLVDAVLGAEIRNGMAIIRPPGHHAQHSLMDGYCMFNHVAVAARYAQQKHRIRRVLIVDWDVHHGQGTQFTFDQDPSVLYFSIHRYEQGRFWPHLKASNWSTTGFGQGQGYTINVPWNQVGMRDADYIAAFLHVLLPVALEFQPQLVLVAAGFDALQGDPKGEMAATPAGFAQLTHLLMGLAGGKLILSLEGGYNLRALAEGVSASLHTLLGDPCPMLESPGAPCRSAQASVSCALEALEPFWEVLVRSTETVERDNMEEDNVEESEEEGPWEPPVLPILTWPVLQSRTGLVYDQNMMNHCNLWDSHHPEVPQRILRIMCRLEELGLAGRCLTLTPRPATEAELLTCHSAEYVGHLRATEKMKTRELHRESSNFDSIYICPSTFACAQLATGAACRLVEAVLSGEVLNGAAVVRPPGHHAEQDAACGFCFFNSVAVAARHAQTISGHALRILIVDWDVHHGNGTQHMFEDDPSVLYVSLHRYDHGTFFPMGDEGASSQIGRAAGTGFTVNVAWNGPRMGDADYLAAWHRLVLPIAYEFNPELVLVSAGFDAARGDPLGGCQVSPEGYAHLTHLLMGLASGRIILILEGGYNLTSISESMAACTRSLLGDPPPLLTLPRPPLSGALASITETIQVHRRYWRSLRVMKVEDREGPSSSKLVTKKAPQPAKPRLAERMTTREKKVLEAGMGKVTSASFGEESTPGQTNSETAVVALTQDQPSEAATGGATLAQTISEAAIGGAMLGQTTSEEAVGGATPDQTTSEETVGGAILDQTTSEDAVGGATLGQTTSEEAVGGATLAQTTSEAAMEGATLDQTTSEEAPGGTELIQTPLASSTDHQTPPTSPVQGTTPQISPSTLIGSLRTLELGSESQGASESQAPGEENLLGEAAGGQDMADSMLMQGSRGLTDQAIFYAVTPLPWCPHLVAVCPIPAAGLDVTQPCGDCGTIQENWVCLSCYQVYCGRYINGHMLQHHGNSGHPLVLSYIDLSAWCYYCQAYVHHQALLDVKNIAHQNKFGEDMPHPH

[8] = system: U-937; assay: Antiproliferative activity against human U937 cells after 72 hrs by MTT assay; format: functional, cell-based; details: U-937, 72 h
[9] = target: Histone deacetylase 1 (Homo sapiens, UniProt Q13547); assay: Inhibition of HDAC1 (unknown origin) preincubated for 15 mins followed by substrate addition measured after 60 mins by fluorescence assay
Histone deacetylase 1, sequence (Q13547 whole entry): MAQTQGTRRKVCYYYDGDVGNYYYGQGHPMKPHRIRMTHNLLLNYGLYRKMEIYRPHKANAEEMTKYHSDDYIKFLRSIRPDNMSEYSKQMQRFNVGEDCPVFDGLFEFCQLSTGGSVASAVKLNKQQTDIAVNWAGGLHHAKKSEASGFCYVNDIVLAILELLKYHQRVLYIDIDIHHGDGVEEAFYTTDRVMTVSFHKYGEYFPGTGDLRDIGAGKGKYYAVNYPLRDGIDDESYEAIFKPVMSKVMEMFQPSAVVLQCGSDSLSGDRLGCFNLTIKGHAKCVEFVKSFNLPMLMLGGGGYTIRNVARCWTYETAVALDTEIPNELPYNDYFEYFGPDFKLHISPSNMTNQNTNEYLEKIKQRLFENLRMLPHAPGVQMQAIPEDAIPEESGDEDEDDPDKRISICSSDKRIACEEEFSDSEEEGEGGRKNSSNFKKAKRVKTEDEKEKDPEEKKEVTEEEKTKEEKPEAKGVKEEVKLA

[10] = system: Salmonella typhimurium; assay: Genotoxicity in Salmonella typhimurium TA97 at 50 times IC50 by Ames test; format: toxicity; details: salmonella enterica subsp. enterica serovar typhimurium
[11] = system: Salmonella typhimurium; assay: Genotoxicity in Salmonella typhimurium TA98 at 50 times IC50 by Ames test; format: toxicity; details: salmonella enterica subsp. enterica serovar typhimurium
[12] = system: Salmonella typhimurium; assay: Genotoxicity in Salmonella typhimurium TA1535 at 50 times IC50 by Ames test; format: toxicity; details: salmonella enterica subsp. enterica serovar typhimurium
[13] = system: Salmonella typhimurium; assay: Genotoxicity in Salmonella typhimurium TA102 at 50 times IC50 by Ames test; format: toxicity; details: salmonella enterica subsp. enterica serovar typhimurium

DNA (cytosine-5)-methyltransferase 1 (Homo sapiens), sequence (P26358 whole entry): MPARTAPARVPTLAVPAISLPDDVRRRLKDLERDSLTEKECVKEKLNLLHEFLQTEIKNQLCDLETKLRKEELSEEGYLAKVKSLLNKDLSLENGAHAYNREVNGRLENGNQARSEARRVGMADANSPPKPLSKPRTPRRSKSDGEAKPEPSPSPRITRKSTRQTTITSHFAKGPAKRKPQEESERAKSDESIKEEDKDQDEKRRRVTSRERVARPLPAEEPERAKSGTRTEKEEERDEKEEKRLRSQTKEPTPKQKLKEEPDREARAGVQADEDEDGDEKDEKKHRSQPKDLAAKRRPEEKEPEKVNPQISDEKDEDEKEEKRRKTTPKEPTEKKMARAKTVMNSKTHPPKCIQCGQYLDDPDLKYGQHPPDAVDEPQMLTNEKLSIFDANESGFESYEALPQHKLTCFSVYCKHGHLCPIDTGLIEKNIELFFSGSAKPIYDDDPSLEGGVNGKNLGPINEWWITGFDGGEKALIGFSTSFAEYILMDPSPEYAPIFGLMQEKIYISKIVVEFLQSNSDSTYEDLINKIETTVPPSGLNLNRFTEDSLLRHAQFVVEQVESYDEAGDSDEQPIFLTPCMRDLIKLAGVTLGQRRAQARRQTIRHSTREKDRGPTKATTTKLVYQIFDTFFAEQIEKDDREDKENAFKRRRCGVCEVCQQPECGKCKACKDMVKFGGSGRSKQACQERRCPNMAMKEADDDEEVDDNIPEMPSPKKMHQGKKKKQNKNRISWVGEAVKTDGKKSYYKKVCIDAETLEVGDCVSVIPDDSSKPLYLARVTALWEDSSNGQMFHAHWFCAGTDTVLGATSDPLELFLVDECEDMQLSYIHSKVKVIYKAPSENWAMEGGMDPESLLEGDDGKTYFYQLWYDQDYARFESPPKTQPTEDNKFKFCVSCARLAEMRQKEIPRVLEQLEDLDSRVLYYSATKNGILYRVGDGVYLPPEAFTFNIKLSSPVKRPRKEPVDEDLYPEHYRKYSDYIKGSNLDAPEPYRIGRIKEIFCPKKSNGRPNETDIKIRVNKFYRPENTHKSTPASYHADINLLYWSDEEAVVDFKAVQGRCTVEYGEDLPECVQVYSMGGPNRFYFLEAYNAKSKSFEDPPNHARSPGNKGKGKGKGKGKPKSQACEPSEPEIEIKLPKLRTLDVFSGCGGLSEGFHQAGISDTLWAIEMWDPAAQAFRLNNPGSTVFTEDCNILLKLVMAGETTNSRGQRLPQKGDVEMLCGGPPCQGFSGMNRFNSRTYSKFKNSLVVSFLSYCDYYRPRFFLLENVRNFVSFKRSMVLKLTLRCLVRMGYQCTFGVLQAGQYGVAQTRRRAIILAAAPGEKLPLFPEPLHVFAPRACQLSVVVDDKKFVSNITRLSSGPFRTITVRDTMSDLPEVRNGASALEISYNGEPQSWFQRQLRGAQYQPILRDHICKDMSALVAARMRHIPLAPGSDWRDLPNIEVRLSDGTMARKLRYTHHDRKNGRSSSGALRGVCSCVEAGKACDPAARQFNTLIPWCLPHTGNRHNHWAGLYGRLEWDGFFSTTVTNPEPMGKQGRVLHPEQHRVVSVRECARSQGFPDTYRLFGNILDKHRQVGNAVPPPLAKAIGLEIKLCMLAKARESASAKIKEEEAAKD

Row | SMILES | inhibition [1] | inhibition of growth at 50 µM [2] | inhibition of growth at 50 µM [3] | inhibition [4] | inhibition [5] | IC50 [6] | IC50 [7] | IC50 [8] | IC50 [9] | Activity [10] | Activity [11] | Activity [12] | Activity [13]
1 | COc1ccc(Cl)cc1C(=O)NCCc1ccc(CCC(=O)O)cc1 | 34 to 34.1% | 15% | 20% | 6.11% | 42% |  |  |  |  |  |  |  | 
2 | COc1cc(C(=O)NCCc2ccc(/C=C/C(=O)NO)cc2)ccc1O | 27.9% |  |  | 15.8% | 11.2% | 5180 nM | 10.7 nM | 10700 nM | 8.1 nM |  |  |  | 
3 | O=C(/C=C/c1ccc(CCNC(=O)c2c[nH]c3ncccc23)cc1)NO | 28.1% |  |  | 7.23% | 21% | 18000 nM | 8.35 nM | 17800 nM | 14.3 nM |  |  |  | 
4 | O=C(/C=C/c1ccc(CCNC(=O)c2ccc3c(c2)OCCO3)cc1)NO | 47.9 to 48% |  |  | 28 to 28.1% | -0.26% | 1780 nM | 11.9 nM | 2970 nM | 11.3 nM | Non-Toxic | Non-Toxic | Non-Toxic | Non-Toxic
5 | O=C(/C=C/c1ccc(CCNC(=O)c2ccc3ncccc3c2)cc1)NO | 22.9% |  |  | 50 to 50.1% | 19.1% | 3160 nM | 5.28 nM | 1260 nM | 4 nM | Non-Toxic | Toxic | Non-Toxic | Non-Toxic
6 | Cc1cc(Nc2ccc(NC(=O)c3ccc(Nc4ccnc5ccccc45)cc3)cc2)nc(N)n1 |  |  |  |  |  | 1160 nM |  | 1560 nM |  |  |  |  | 
7 | COc1ccc(Cl)cc1C(=O)NCCc1ccc(CCC(=O)NO)cc1 | 23.8 to 24% |  |  | 8.26% | 4.64 to 5% | 6230 nM | 41.4 nM | 3950 nM | 72.3 nM | Non-Toxic | Non-Toxic | Non-Toxic | Toxic
8 | O=C(/C=C/c1ccc(CCNC(=O)c2ccc3c(c2)OCO3)cc1)NO | 18.4% |  |  | 9.89% | -1.03% | 1120 nM | 7.1 nM | 520 nM | 7.18 nM | Non-Toxic | Non-Toxic | Toxic | Non-Toxic
9 | COc1ccc(Cl)cc1C(=O)NCCc1cccc(/C=C/C(=O)NO)c1 | 36 to 36.4% |  |  | 3.09% | 1.97% | 3650 nM | 39.9 nM | 1070 nM | 34.6 nM | Non-Toxic | Non-Toxic | Non-Toxic | Non-Toxic
10 | O=C(/C=C/c1ccc(CCNC(=O)c2ccc3[nH]cnc3c2)cc1)NO | 47 to 47.4% | 45% |  | 30.8% | 41 to 41.2% | 31700 nM | 4.68 nM |  | 7.8 nM |  |  |  | 
11 | O=C(/C=C/c1ccc(CCNC(=O)c2cncc(F)c2)cc1)NO | 44 to 44.2% |  |  | 1.9% | 0.9% | 7060 nM | 35.9 nM | 4590 nM | 25.7 nM | Non-Toxic | Non-Toxic | Non-Toxic | Non-Toxic

From ChEMBL document CHEMBL4033641, “Design, synthesis and anticancer potential of NSC-319745 hydroxamic acid derivatives as DNMT and HDAC inhibitors” (Eur J Med Chem, 2017)
